A word on the pIC50: it is the negative decadic logarithm of the IC50, by convention in mol/L. What is called IC50 is the point on the concentration scale where inhibition reaches its midpoint.

The text below walks through data of ChEMBL document CHEMBL5126678, “A New Naphthopyran Derivative Combines c-Myb Inhibition, Microtubule-Targeting Effects, and Antiangiogenic Properties” (ACS Med Chem Lett, 2022).

pIC50: −log10 of the molar value. Activity calls are given as the source filed them. No cut-off for these calls is given here.

For data set [1], the target named is T1, Caspase-3/Caspase-7 (Homo sapiens) (UniProt P42574+P55210). Description: Activation of caspase-3/7 activity in human 518A2 cells at 1 uM preincubated for 6 hrs followed by caspase-3/7 fluorogenic substrate addition and measured after 60 mins by fluorescence assay. The conditions noted are these: filed as activator, time 7.0 hrs. The data set is classed as cell-based.

Data set [2] in a line: Effect on angiogenic activity in 24 hrs post-fertilized fil1/EGFP transgenic zebrafish embryo assessed as subintestinal vessel area at 100 nM measured after 48 hrs by fluorescence microscopy (reference value: 100%). Type of data set: toxicity, Danio rerio. Particulars: 0.1 µM.
Data set [3] is described as follows: Hydrolytic stability of compound in DMSO-d6/D2O measured after 7 days by 1H-NMR analysis. The data set is classed as physicochemical. The conditions noted are these: 168 h; time 7 day.
Data set [4] deals with Transcriptional activator Myb (Homo sapiens, UniProt P10242). Kind of data set: Inhibition of c-Myb (unknown origin) expressed in HEK293T cells measured after 16 hrs by steady-glo luciferase reporter gene assay. Type of data set: cell-based. (Reporter assays use an easily measured gene product as a stand-in for the process of interest.)
Data set [5] can be described thus: Cytotoxicity against human EA.hy 926 cells assessed as reduction in cell viability measured after 72 hrs by MTT assay. Type of data set: toxicity, cell-based. For orientation: Tetrazolium assays rely on reduction of a dye to a coloured formazan, in cell work by metabolically active cells.
In data set [6] the test system is 518A2. Kind of data set: Cytotoxicity against human 518A2 cells assessed as reduction in cell viability measured after 72 hrs by MTT assay. The data set is classed as functional, cell-based. The conditions noted are these: 518A2, 72 h.
The subject of data set [7] is HCT-116. Description: Cytotoxicity against human HCT-116 cells assessed as reduction in cell viability measured after 72 hrs by MTT assay. Type of data set: functional, cell-based. Particulars: HCT-116, 72 h.
For data set [8], the system named is HCT-116. Kind of data set: Cytotoxicity against p53-deficient human HCT-116 cells assessed as reduction in cell viability measured after 72 hrs by MTT assay. The data set is classed as functional, cell-based. Particulars: HCT-116, 72 h.
The subject of the next data set is HT-29. Kind of data set: Cytotoxicity against human HT-29 cells assessed as reduction in cell viability measured after 72 hrs by MTT assay. Type of data set: functional, cell-based. Particulars: HT-29, 72 h.
The subject of data set [9] is KB-V1. Description: Cytotoxicity against human multidrug-resistant KB-V1 cells assessed as reduction in cell viability measured after 72 hrs by MTT assay. Type of data set: functional, cell-based. Particulars: KB-V1, 72 h.
Data set [10] deals with KB-V1. Description: Cytotoxicity against human multidrug-resistant KB-V1 cells assessed as reduction in cell viability measured after 72 hrs in presence of verapamil by MTT assay. The data set is classed as functional, cell-based. The conditions noted are these: KB-V1, 72 h.
Data set [11] in a line: Cytotoxicity against human U-87 cells assessed as reduction in cell viability measured after 72 hrs by MTT assay. The data set is classed as functional, cell-based, U-87MG ATCC. Particulars: U-87 MG.
For a further data set, the system named is HeLa. Description: Cytotoxicity against human HeLa cells assessed as reduction in cell viability measured after 72 hrs by MTT assay. Type of data set: functional, cell-based.
Data set [12] is described as follows: Cytotoxicity against HDFa cells assessed as reduction in cell viability at 0.0005 to 100 uM measured after 72 hrs by MTT assay. The data set is classed as toxicity, cell-based. The conditions noted are these: human, dose 0.0005-100 µM.
The species entered for the next data set is Sus scrofa. Kind of data set: Inhibition of porcine brain tubulin polymerization at 5 uM measured at 10 mins interval for 100 mins by turbidimetric assay. The data set is classed as tissue-based.
The target in data set [13] is T2, Tubulin (Homo sapiens) (UniProt P68371+Q9H4B7+P0DPH7+P68366+Q13509+Q71U36+P04350+Q3ZCM7+P07437+P68363+Q9BQE3+Q6PEY2+Q13885+Q9BVA1+Q9BUF5). Description: Induction of microtubule fragmentation in human 518A2 cells at 25 nM measured after 24 hrs by immunofluorescence assay. The data set is classed as cell-based.
For data set [14], the target named is T2, Tubulin (Homo sapiens). Description: Induction of microtubule fragmentation in human 518A2 cells assessed as appearance of area with dorsal stress fibre at 25 nM measured after 24 hrs by immunofluorescence assay. The data set is classed as cell-based.
For data set [15], the target named is T2, Tubulin (Homo sapiens). Description: Induction of microtubule fragmentation in human 518A2 cells assessed as appearance of area with transverse arcs at 25 nM measured after 24 hrs by immunofluorescence assay. Type of data set: cell-based.
The nature of data set [16]: Drug uptake in cytoplasm of human 518A2 cells at 25 uM measured within 15 mins by confocal microscopy. Type of data set: ADME, subcellular. The conditions noted are these: 518a2, 0.25 h.
For data set [17], the system named is 518A2. Kind of data set: Cell cycle arrest in human […] cells assessed as increase in accumulation at sub-G1 phase at 25 nM measured after 6 to 24 hrs by propidium iodide staining based FACS analysis. Type of data set: functional. Particulars: time 6-24 hrs. (In flow cytometry, cells or beads pass a laser one at a time.)
Data set [18] deals with 518A2. Kind of data set: Cell cycle arrest in human […] cells assessed as increase in accumulation at G2/M phase at 25 nM measured after 6 to 24 hrs by propidium iodide staining based FACS analysis. Type of data set: functional. Particulars: time 6-24 hrs.
Data set [19] concerns the target T1, Caspase-3/Caspase-7 (Homo sapiens). Description: Activation of caspase-3/7 activity in human 518A2 cells at 25 nM preincubated for 24 hrs followed by caspase-3/7 fluorogenic substrate addition and measured after 60 mins by fluorescence assay. The data set is classed as cell-based. Particulars: filed as activator, time 25.0 hrs.
The nature of data set [20]: Effect on angiogenic activity in human EA.hy 926 cells assessed as reduction in vessel like 2D structure at 25 nM measured after 5 hrs by light microscopy. The conditions noted are these: ea.hy 926, 5 h, 0.025 µM. Type of data set: toxicity, cell-based.
Data set [21] in a line: Stability of compound in human 518A2 cell lysate at 100 uM measured after 24 hrs by UV-absorption spectra analysis. Type of data set: ADME, subcellular. The conditions noted are these: 518a2, 24 h.
A short description of data set [22]: Stability of compound in human 518A2 cell lysate measured after 72 hrs by RP-HPLC analysis. Type of data set: ADME, subcellular. Particulars: 518a2, 72 h.
Another data set has as its system MCF7. Description: Cytotoxicity against human MCF7 cells assessed as reduction in cell viability measured after 72 hrs by MTT assay. The data set is classed as functional, cell-based. Particulars: MCF7, 72 h.

T1 sequence (P42574 whole entry, looked up): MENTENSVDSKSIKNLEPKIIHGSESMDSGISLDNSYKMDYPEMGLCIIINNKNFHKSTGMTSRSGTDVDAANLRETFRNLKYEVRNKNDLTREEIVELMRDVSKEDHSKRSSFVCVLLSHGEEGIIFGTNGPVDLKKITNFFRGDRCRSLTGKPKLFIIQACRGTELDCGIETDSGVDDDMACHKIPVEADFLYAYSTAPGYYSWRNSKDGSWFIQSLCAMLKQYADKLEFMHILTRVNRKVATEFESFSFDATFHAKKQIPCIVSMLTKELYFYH
T1 sequence (P55210 whole entry, looked up): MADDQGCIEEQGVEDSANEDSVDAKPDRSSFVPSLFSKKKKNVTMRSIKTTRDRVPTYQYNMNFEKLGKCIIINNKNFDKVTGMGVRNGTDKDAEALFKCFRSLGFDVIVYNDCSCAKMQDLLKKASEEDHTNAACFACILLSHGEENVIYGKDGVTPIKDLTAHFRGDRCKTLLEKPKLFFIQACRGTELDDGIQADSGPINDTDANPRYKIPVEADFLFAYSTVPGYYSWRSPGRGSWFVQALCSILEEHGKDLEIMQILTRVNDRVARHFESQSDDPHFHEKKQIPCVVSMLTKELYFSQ
Chain of Transcriptional activator Myb (P10242 whole entry): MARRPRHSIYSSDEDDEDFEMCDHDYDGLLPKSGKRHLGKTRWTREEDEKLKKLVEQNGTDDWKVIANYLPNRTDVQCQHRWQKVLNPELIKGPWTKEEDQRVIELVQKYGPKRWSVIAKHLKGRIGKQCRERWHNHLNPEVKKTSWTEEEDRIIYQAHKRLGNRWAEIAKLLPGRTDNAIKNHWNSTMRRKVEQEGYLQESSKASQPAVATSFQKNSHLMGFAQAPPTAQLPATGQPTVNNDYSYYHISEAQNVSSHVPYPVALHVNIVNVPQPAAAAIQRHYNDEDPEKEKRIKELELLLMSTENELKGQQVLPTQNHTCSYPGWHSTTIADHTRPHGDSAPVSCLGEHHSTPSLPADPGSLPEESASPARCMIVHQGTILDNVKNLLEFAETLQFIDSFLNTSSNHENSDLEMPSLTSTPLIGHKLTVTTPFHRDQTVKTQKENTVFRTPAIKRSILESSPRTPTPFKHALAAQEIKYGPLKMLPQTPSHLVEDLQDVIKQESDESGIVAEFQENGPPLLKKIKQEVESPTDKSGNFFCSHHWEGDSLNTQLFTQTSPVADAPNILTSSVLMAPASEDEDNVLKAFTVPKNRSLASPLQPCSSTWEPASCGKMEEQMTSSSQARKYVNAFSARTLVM

As for `CN[C@@H]1C[C@H]2O[C@@](C)([C@@H]1OC)n1c3ccccc3c3c4c(c5c6ccccc6n2c5c31)C(=O)NC4`, the result in data set [1] was Active.

With `C#CCOc1c(OC)cc(C2C(C#N)=C(N)Oc3c2ccc2ccccc32)cc1OC` (stereo not drawn), the Activity in [2] is on record as 34.5%; in data set [12], “Toxic”; in data set [20], “Toxic”. Besides, the Stability entry in [3], in data set [21] and in data set [22] was “Stable” each time. In addition, the pIC50 is 7.96 in data set [4]; 7.69 in the data set on 518A2 [6]; 7.12 with HCT-116 [7]; 7.70 in the data set with HCT-116 [8]; 7.43 in the data set with HT-29; 7.22 in the data set on KB-V1 [9]. The pIC50 in the data set on KB-V1 [10] is 7.97; in [11], 8.28; in the data set with HeLa, 7.62; in the data set with MCF7 it was 8.59. The IC50 at 72 h in data set [5] came out at 17.1 nM. Also, the inhibition result in the data set listed under Sus scrofa is “Active”. In addition, the result (on Tubulin (Homo sapiens) [13]; at Tubulin (Homo sapiens) [14]; on Tubulin (Homo sapiens) [15]; with 518A2 [17]; in the data set with 518A2 [18]; in data set [19]) was Active. Further, the Drug uptake result in data set [16] is listed as “Active”.

`COc1cc(C2C(C#N)=C(N)Oc3c2ccc2ccccc32)cc(OC)c1OC` (stereo not drawn): the figures for the Activity in [2], in data set [12] and in data set [20] were 81.4%, “Toxic” and “Toxic”, respectively. For the same compound, in data set [3], the Stability result is given as “Stable”. Moreover, the pIC50 is 8.04 in data set [4]; 7.54 in the data set with 518A2 [6]; 7.65 in the data set with HCT-116 [7]; 7.56 in the data set with HCT-116 [8]; 6.49 in the data set with HT-29; 7.58 in the data set on KB-V1 [9]. The pIC50 was 8.06 with KB-V1 [10], 8.28 in data set [11], 7.95 with HeLa and 7.47 with MCF7. The IC50 at 72 h in data set [5] was 19.9 nM. In addition, the inhibition result in the data set filed under Sus scrofa was “Active”. In addition, the result (at Tubulin (Homo sapiens) [13]; at Tubulin (Homo sapiens) [14]; on Tubulin (Homo sapiens) [15]; in the data set with 518A2 [17]; with 518A2 [18]; in [19]) was Active.
